We go through 1 compound from patent US9687486B2, “Methods of treating atherosclerosis or myeloproliferative neoplasms by administering a lyn kinase activator” (THE TRUSTEES OF COLUMBIA UNIVERSITY IN THE CITY OF NEW YORK, priority 2012, dated 2017).

For one experiment, the system named is c-MPL. The experiment is described as follows: Cell surface c-MPL levels in MkPs by flow cytometry. The format is cell-based, mouse.
A further experiment has as its system c-CBL. The experiment is described as follows: c-Cbl tyrosine phosphorylation in MkPs in response to TPO, flow cytometry. It counts as cell-based, mouse. Here is the method:
BM progenitor cells were stimulated with TPO at the indicated concentration for the specified period of time at 37° C. and then immediately diluted with ice-cold buffer and placed on ice to prevent further changes in phosphorylation. Cells were then centrifuged and the pellet resuspended in BD fix buffer (BD Biosciences) for 10 mins on ice. The cells were washed with BD flow cytometry staining buffer, centrifuged and then resuspended in BD cytofix/perm buffer III for 20 mins. After this the cells were washed and resuspended in BD staining buffer and incubated with lineage (Sca1, CD127, CD45R, CD19, CD11b, CD3e, TER-119, CD2, CD8, CD4, and Ly-6G; all FITC; eBioscience) and progenitor cell markers, ckit, CD16/CD32 (FcγRII/III), CD34, CD41 and anti-phospho-c-Cbl ([…]/[…]; BD biosciences) or an isotype control for 30 mins on ice. The cells were then washed, resuspended in FACS buffer and run on an LSRII. Phosphorylated c-Cbl was normalized against isotype control staining.
In general terms: A flow cytometer gives signals particle by particle.

For the next experiment, the system named is MkPs. The experiment is described as follows: MkP proliferation by EdU incorporation. It counts as cell-based, mouse. Conditions: in the presence of TPO. Here is the method:
FIG. 3. Shown are results all from WT, Abcg4^-/- or Lyn^-/- MkPs (n=4). (A) Quantification of tyrosine-phosphorylated c-CBL in response to TPO. (B) Tyrosine-phosphorylated c-CBL levels 5 min after TPO treatment and with or without pretreatment with CD (3 mM), CD-chol (3 mM CD) for 30 min or rHDL (20 μg apoA-I/ml) for 2 hours. (C) Tyrosine-phosphorylated c-CBL with or without 5 min TPO treatment or SU6656 pretreatment (10 μg/ml for 2 h). (D) Cell surface c-MPL with or without TPO or SU6656 treatment for 2 h. (E) Tyrosine-phosphorylated c-CBL (5 min in response to TPO). (F) cell surface c-MPL (2 h TPO treatment) with or without pretreatment with CD-chol (3 mM CD) for 30 min. (G) 16 h EdU incorporation in the presence of TPO and with or without CD (3 mM), CD-Chol (3 mM CD) pretreatment for 30 min or rHDL (20 μg/ml) for 16 […]-5 and p-ERK1/2 levels with or without TPO for 10 minutes. TPO was 30 ng/ml for all the assays shown. Error bars are S.E.M. *P<0.05 WT vs Abcg4^-/- TPO and ^P<0.05 for treatment effect. Blood leukocytes and BM HSPCs were stained and analyzed or sorted as described (Murphy, A. J. et al. 2011). Briefly, BM cells from the mouse femurs and tibias were stained with a cocktail of antibodies to lineage committed cells (CD45R, CD19, CD11b, CD3e, TER-119, CD2, CD8, CD4, Ly-6C/G: All FITC, eBioscience), antibodies to Sca1 (Pacific Blue) and ckit (APC Cy7) to identify HSPC populations and LSK (lin-, Sac1+ and ckit+) cells, and antibodies to CD16/CD32 (FcγRII/III), CD34 to separate CMP (lin-, Sca1-, ckit+, CD34int, […] (lin-, Sca1-, ckit+, CD34int, […] (lin-, Sca1-, ckit+, CD34lo, FcγRII/IIIlo). For DNA content analysis (G2M phase), BM cells were fixed, and stained with DAPI (Invitrogen) prior to flow cytometry analysis. To determine in vivo cell proliferation, EdU (Invitrogen) was injected into mice via the tail vein 24 hours prior to being sacrificed. Cells were immunostained as described above in preparation for flow cytometry. Cells were then fixed and permeabilized using 0.01% saponin (w/v; Fluka) and 1% FCS (v/v) in IC fixation buffer (eBiosciences) for 30 minutes. Cells were then washed and stained with Alexa Fluor-conjugated azides using the Click-iT system (Invitrogen). Proliferation was quantified as percentage of EdU^+ cells by flow cytometry.

Experiment [1] concerns c-MPL(W515L) positive megakaryocyte progenitor cells. It counts as cell-based, mouse. As to conditions: tolimidone 10 μM, 10 days, IL-3 and TPO 1 ng/mL. Here is the method: FIG. 21. BM cells of the recipient transplanted with BM cells expressing c-MPL(W515) were cultured for 10 days in the presence of IL-3 ([…]) and TPO (1 ng/mL) with or without tolimidone (10 μM). Megakaryocyte (Mk) colonies expressing c-MPL (W515) were identified by cell morphology and GFP expression. Identity of MK was also confirmed by staining for acetylcholinesterase activity. Count of Mk colonies (a); Mk count per colony (b); total colony per plate (c); fluorescence microscopy of a single colony (d). *p<0.05 between vehicle and tolimidone treatment.
Long-term, repeated rHDL infusions are less desirable relative to orally bioavailable small molecule compounds in treatment of chronic diseases such as MPNs. […] To assess the possibility that tolimidone limits megakaryopoiesis and thrombocytosis induced by c-MPL(W515), megakaryocyte colony formation assays with BM cells derived from mice with retroviral co-expression of c-MPL(W515L) and GFP in BM cells were used. […] Under the conditions of low TPO (1 ng/ml), the majority of cell colonies were non-megakaryocyte colonies.

Experiment [2] deals with BM cells derived from Jak2+/VF/Vavcre mice. The experiment is described as follows: Megakaryocyte colony formation assay, BM cells from Jak2+/VF/Vavcre mice. The format is cell-based, mouse. As to conditions: tolimidone 10 μM, 14 days. The procedure: FIG. 22. BM cells from Jak^2+/VF/Vav^cre mice were plated and cultured for 14 days in the presence of IL-3 ([…]) and TPO (1 ng/mL) with or without tolimidone (10 μM). Megakaryocyte (Mk) colony was identified by cell morphology. Colony number/plate (a); Mk count/colony (b); and representative Mk colonies (c). Arrows indicate the projected proplatelet like structures from mature megakaryocytes. *p<0.05 between vehicle and tolimidone (10 μM).
In order to assess this possibility, megakaryocyte colony formation assay with BM cells derived from Jak2+/VF/Vavcre mice were performed. […] Moreover, many of the mature megakaryocytes in the vehicle group started to form long-projected cell structures resembling proplatelets.

A further experiment concerns platelets. The experiment is described as follows: Platelet count in Abcg4−/− mice with tolimidone. It counts as in vivo, mouse.
In a further experiment the target is Lyn tyrosine kinase (Homo sapiens, UniProt P07948). Conditions: Saporito et al. 2012; cited from earlier work.
For another experiment, the system named is ulcer. Conditions: rats, 10 mg/kg, oral; Lipinski et al. 1980; cited from earlier work.

Molecules are shown by their SMILES. Entries after “also recorded” stand apart in the source; their conditions may differ.

Lyn tyrosine kinase, sequence (P07948 whole entry): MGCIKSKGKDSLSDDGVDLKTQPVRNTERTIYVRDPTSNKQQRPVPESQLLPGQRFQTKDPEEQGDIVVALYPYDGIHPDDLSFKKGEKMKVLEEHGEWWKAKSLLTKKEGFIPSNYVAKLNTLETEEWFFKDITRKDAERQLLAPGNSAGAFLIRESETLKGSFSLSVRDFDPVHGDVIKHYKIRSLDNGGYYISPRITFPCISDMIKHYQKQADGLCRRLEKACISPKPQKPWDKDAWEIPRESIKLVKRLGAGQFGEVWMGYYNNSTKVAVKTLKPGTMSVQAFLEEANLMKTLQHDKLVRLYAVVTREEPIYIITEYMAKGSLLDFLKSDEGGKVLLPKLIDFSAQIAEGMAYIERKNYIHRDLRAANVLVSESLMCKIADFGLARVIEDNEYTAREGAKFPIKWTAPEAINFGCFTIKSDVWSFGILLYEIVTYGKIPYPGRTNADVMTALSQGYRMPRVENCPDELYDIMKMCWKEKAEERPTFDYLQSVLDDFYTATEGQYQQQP

On to `Cc1cccc(Oc2cnc(=O)[nH]c2)c1` [Tolimidone], for which the “cell surface c-MPL levels” value in the experiment on c-MPL (Abcg4−/− MkPs, TPO 30 ng/ml) is on record as “reverses; also recorded: reduces”; in the experiment with c-MPL (Abcg4−/− MkPs, tolimidone 10 μM and TPO for 2 h (FIG. 16)), “significantly reduced”; in the experiment on c-MPL (WT MkPs, TPO 30 ng/ml), “decreased”; in the experiment on c-MPL (WT and Abcg4−/− MkPs, BM cells of hypercholesterolemic Ldlr−/− mice, Tolimidone 10 μM, 30 ng/ml TPO, 2 hours (FIG. 20)), “significantly reduced”. Moreover, the “effects in Lyn−/− MkPs (c-MPL, c-Cbl phosphorylation, proliferation)” value with c-MPL (Lyn−/− MkPs, expected) is given as “no effects”. In addition, the c-CBL tyrosine phosphorylation result in the experiment with c-CBL (Abcg4−/− MkPs) was “increases”; in the experiment with c-CBL (WT MkPs), “increased”. Besides, the results for the MkP proliferation entry in the experiment with MkPs (Abcg4−/− MkPs) and in the experiment on MkPs (WT MkPs) were “decreases” and “decreased”, respectively. Moreover, the “GFP-positive megakaryocytes in each colony” value in experiment [1] was “significantly reduced”. In experiment [1], the “number of GFP-positive megakaryocyte colonies” value was “significantly reduced”. Moreover, the “total number of colonies” value in experiment [1] was “did not significantly affect”. Further, the “proportion of megakaryocytes that generated proplatelets” value in experiment [2] is reported as “reduced”. Further, the “number of megakaryocyte colonies” value in experiment [2] (IL-3 and TPO 1 ng/mL) was “decreased”. Further, the “number of megakaryocytes in each colony” value in experiment [2] (IL-3 and TPO 1 ng/mL) is listed as “decreased”. Also, the platelet count result in the experiment on platelets is reported as “reduces”. Moreover, the Lyn kinase activity result on Lyn tyrosine kinase was “selectively increases; also recorded: potent and selective”. Moreover, the anti-ulcer activity result in the experiment on ulcer is recorded as “oral-active anti-ulcer activity”.
